One assay relates to Bacillus subtilis. The experiment in a line: Antibacterial activity against Bacillus subtilis by agar diffusion assay. It counts as functional, organism-based.
In a further assay the test system is Candida albicans. The experiment in a line: Antifungal activity against Candida albicans by agar diffusion assay. It is filed as functional, organism-based.
The subject of another assay is Amorphotheca resinae. Description: Antifungal activity against Cladosporium resinae by agar diffusion assay. It counts as functional, organism-based.
In a further assay the test system is Escherichia coli. The experiment in a line: Antibacterial activity against Escherichia coli by agar diffusion assay. It counts as functional, organism-based.
A further assay deals with P388. Description: Cytotoxicity against mouse P388 cells. It counts as functional, cell-based.
The test system of assay [1] is Trichophyton mentagrophytes. Description: Antifungal activity against Trichophyton mentagrophytes by agar diffusion assay. It counts as functional, organism-based.

Activity calls are given as the source filed them. The rule behind the calls is not given here.

As to `CC(=O)O[C@@H]1/C=C/[C@@](C)(O)C(=O)[C@@H](C)C/C=C/[C@H]2[C@@H]3O[C@]3(C)[C@@H](C)[C@H]3[C@H](Cc4ccccc4)NC(=O)[C@@]312` [CYTOCHALASIN Q], the result (with Bacillus subtilis; with Candida albicans; in the assay on Amorphotheca resinae; in the assay on Escherichia coli; in assay [1]) was inactive. Besides, the IC50 in the assay with P388 turned out to be 2400 nM.
